Laboratory results as given in patent publication EP1007024B1 (Pfizer Products Inc., priority 1997, dated 1999).
Counter-ions that a name gives are not always drawn. Like-named read-outs stand apart in the source and are kept apart here.

Experiments:
physchem [1] = conditions: water
[2] = Pharmacokinetics of 200 mg sertraline delivered to various portions of the gastrointestinal tract (four-way crossover); assay type: in vivo; conditions: human, plasma
Method: Dosing was via (1) oral tablets, or (2) infusion of a solution through a nasoenteric tube into the stomach, duodenum, or ileocecal region of the small intestine, or (3) infusion into the transverse colon via anal intubation.
The infusions were administered as a 2 mg/ml solution at a rate of 20 ml/min for 5 min.
Analysis was carried out by capillary gas chromatography with electron capture detection.

[3] = Side effects by visual analogue scales and PK/PD plots (Study I, Study II); assay type: in vivo, human
Method: (§1) In a subset of a larger double-blind, randomized, placebo-controlled parallel group study, healthy male human subjects were divided into two groups (Study 1). […] The tablets were administered with 50 ml water. Group B received two placebo tablets. All subjects were dosed after an overnight fast.
Prior to dosing and each blood sampling time, each subject filled out a questionnaire, which consisted of a series of "Visual Analogue Scales" in which the subject was required to rate, on a scale of 0-10, the severity of certain potential side effects. The subjects were instructed that "0" indicated an absent effect and "10" indicated the worst possible effect The subjects were instructed to interpolate between 0 and 10 for moderate side effects.
A total of 30 subjects completed Study I: 15 each in Groups A and B. For each side effect evaluated at 30 time points, a total of 900 individual visual-analogue-scale evaluations were obtained.

[4] = male, human, in vivo
Method: as §1
(§2) Analysis was carried out by capillary gas chromatography with electron capture detection. […] Tmax is the time at which Cmax is achieved.
(§3) The data from these four subjects were not included in the pharmacokinetic averages.

clinical = conditions: human, in vivo, 200 mg
Method: as §1, §2, §3

[5] = oral administration of known immediate-release dosage forms, plasma; cited from earlier work
[6] = Screening test for inhibition of precipitation or gelation of sertraline lactate when chloride is added; assay type: physicochemical
Method: Sodium chloride was then added (as a concentrated solution) and the result observed. An excipient was considered beneficial if the solution remained clear and fluid. The more chloride that could be added to an excipient solution with the solution remaining dear, the more beneficial was the excipient.

[7] = Screening of solubilizers for sertraline lactate solubility with and without chloride; conditions: water
physchem [8] = conditions: water, Sertraline Lactate Solubility, in water, excipient None
[9] = Group A, Ileocecal Infusion of 2 mg/ml solution
[10] = Group A, Stomach Infusion of 2 mg/ml solution
[11] = Group B, Colonic Infusion of 2 mg/ml solution
[12] = Group B, Duodenal Infusion of 2 mg/ml solution

For `CN[C@H]1CC[C@@H](c2ccc(Cl)c(Cl)c2)c2ccccc21` [sertraline hydrochloride], the solubility (physchem [1]) was 2.5 mg/mL.

For `CN[C@H]1CC[C@@H](c2ccc(Cl)c(Cl)c2)c2ccccc21` [sertraline], the Cmax [2, 9] was 27.3 ng/mL, the Tmax [2, 9] was 5 h and the Cmax [2, 10] was 35.6 ng/mL. It also gave a Tmax [2, 10] of 7 h, a Cmax ([2]; Group B, Colonic Infusion (transverse colon) of 2 mg/ml solution) of 10.9 ng/mL and an AUC [2, 11] of 179 ng·h/mL. The Tmax [2, 11] was 4.4 h, the AUC [2, 12] was 1270 ng·h/mL and the Cmax [2, 12] was 48.8 ng/mL. The Tmax [2, 12] was 3.7 h, the Cmax ([2]; po, Group A, Oral Tablet (two 100 mg immediate release tablets), group average) was 39.9 ng/mL and the Tmax ([2]; po, Group A, Oral Tablet, group average) was 7 h. The AUC ([2]; po, Group B, Oral Tablet) was 1150 ng·h/mL, the Tmax ([2]; po, Group B, Oral Tablet) was 6.7 h and the Cmax ([2]; po, Group B, Oral Tablet (two 100 mg immediate release tablets)) was 44.7 ng/mL. For the same compound, the “side effect score for diarrhea vs plasma sertraline concentration curve” value ([3]; Study 1, 200 mg bolus dose) was “clockwise hysteresis”, the “PK/PD plot, average visual analogue score for nausea vs plasma sertraline concentration” value ([3]; Study I, Group A, 200 mg bolus dose, Figure 1) was “clockwise hysteresis” and the “subjects with emesis (regurgitation)” value ([3]; Study II, 200 mg dose group) was “Four and four”. The “average Tmax” value [4] was 6 h, the AUC (clinical) was 1740 ng·h/mL and the Cmax (clinical; male) was roughly 70 ng/mL. The Tmax [5] was 6 to 7 h.

For `CN[C@H]1CC[C@@H](c2ccc(Cl)c(Cl)c2)c2ccccc21` [sertraline lactate], the “Observation After NaCI Addition” value ([6]; sertraline lactate in water alone (control), NaCl 38 mM) was “gel/precipitate”, the solubility [7] was 125 mg/mL and the solubility (physchem [8]) was roughly 125 mg/mL.

With `N[C@@H](Cc1c[nH]cn1)C(=O)O` [Histidine] the “Observation After NaCI Addition” value ([6]; sertraline lactate with excipient, NaCl 150 mM) was “slight precipitate”.

With `O=C1O[C@H]([C@@H](O)CO)C(O)=C1O` [Ascorbic acid] the “Observation After NaCI Addition” value ([6]; sertraline lactate with excipient, NaCl 100 mM) was “predpitate”.
